From ChEMBL document CHEMBL1159351, “New briaranes from the Taiwanese gorgonian Junceella juncea” (J Nat Prod, 2003)
In brackets after ≈: the same amount, converted by molar mass. Activity calls are given as the source filed them. No cut-off for these calls is given here.

Columns and labels:
Assay type in all cases: functional, cell-based
HEPA 59T/VGH = assay: (§1) Cytotoxicity against human HEPA 59T/VGH cells by methylene blue dye assay
KB16 = assay: (§2) Cytotoxicity against human KB16 cells by methylene blue dye assay
[1] = as §1
[2] = as §2

SMILES | Activity (HEPA 59T/VGH) | Activity (KB16) | IC50 [1] | IC50 [2]
CC(=O)O[C@H]1C[C@]2(CO2)[C@H]2[C@](C)([C@H]1OC(C)=O)[C@]1(OC(C)=O)/C=C\C(CO)=C/[C@@H]3OC(=O)[C@H](C)[C@@]3(O)[C@]21OC(C)=O | inactive | inactive |  | 
C=C1/C=C/[C@H](OC(C)=O)[C@@]2(C)[C@@H](OC(C)=O)CC[C@]3(CO3)[C@@H]2[C@H](OC(C)=O)[C@]2(O)[C@@H](C)C(=O)O[C@H]2[C@H]1Cl | inactive | inactive |  | 
COCC1=C/[C@@H]2OC(=O)[C@H](C)[C@@]2(O)[C@]2(OC(C)=O)[C@H]3[C@@]4(CO4)[C@H](OC(C)=O)[C@H](OC(C)=O)[C@H](OC(C)=O)[C@]3(C)[C@]2(OC(C)=O)/C=C\1 | inactive | inactive |  | 
CC(=O)O[C@H]1[C@@H](OC(C)=O)[C@]2(CO2)[C@H]2[C@](C)([C@H]1OC(C)=O)[C@]1(OC(C)=O)/C=C\C(CO)=C/[C@@H]3OC(=O)[C@H](C)[C@@]3(O)[C@]21OC(C)=O [JUNCENOLIDE C] |  |  | 6.6 µg/mL (≈ 10.4 µM) | 7.8 µg/mL (≈ 12.3 µM)
